Where “and” joins values, the source holds several entries; their conditions need not be identical. Equal values may be shown once. Read-outs that look alike come from different tables or passages of the source.
How the values were obtained:
[1] = target: T1, T. brucei TS (Tsf-TbDHFR-TS) (Trypanosoma brucei brucei, UniProt Q27783); assay: Inhibition of TS activity of Tsf-TbDHFR-TS in clarified thyA- E. coli lysate; assay type: biochemical; conditions: for Ki: TS Ki, T. brucei; for Ki / TS Ki, T. brucei: 100 μM CH2THF, 200 μM dUMP, 200 nM Tsf-TbDHFR-TS, Inactive * = no inhibition at 25 μM, ** = no inhibition at 100 μM
T1 construct: The open reading frame of DHFR-TS was amplified by PCR from T. brucei gDNA using specific oligonucleotides; made in house; host or cells: thyA- E. coli derived from BL21 Star (DE3); unpurified clarified lysate
Protocol: (§1) The initial characterisation of TS was also carried out using a spectrophotometric assay. […] Enzymatic reactions were initiated by the addition of CH2THF (200 μM, Shircks Laboratories) and initial rates of CH2THF oxidation to DHF monitored by the increase in absorbance at 340 nm (ε = 6,200 M^-1 cm^-1). […] Residual 5-[^3H]-dUMP was removed by the addition of 200 μl of 10% (w/v) activated charcoal (Sigma). Aliquots (100 μl) of the supernatants were added to 2 ml of scintillation fluid (Pico-Fluor 40™, Packard Bioscience) and radioactivity determined using a Beckmann LS 6500 Scintillation Counter. To determine TS activity in clarified T. brucei lysates the incubation time was increased to 30 min and the assay volume was increased to ~200 μl. […] For stability experiments all lysates were desalted using 0.5 ml Zeba Spin Desalting Columns (7K MWCO). Protein concentrations were determined using the BioRad protein assay based on the method of Bradford. Inhibitors (8-point doubling dilutions) were assayed using the radiometric method in the presence of 100 μM CH2THF, 200 μM dUMP and 200 nM Tsf-TbDHFR-TS.
Target sequence in this assay (Q27783 whole entry): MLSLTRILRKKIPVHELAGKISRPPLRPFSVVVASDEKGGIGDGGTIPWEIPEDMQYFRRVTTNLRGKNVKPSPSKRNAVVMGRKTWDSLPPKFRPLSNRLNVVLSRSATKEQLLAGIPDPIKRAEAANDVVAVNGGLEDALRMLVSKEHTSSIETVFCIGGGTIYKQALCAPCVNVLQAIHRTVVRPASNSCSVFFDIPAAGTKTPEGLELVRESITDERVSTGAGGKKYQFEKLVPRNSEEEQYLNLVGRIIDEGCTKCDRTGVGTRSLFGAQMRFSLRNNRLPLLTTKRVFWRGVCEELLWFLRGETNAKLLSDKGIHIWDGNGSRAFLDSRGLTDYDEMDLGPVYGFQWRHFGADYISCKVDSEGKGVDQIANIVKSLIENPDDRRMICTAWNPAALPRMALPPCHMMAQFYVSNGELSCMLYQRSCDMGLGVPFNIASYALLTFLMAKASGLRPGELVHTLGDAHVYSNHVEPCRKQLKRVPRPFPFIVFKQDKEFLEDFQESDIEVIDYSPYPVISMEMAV
Target sequence in this assay (P0A6P1 whole entry, further chain): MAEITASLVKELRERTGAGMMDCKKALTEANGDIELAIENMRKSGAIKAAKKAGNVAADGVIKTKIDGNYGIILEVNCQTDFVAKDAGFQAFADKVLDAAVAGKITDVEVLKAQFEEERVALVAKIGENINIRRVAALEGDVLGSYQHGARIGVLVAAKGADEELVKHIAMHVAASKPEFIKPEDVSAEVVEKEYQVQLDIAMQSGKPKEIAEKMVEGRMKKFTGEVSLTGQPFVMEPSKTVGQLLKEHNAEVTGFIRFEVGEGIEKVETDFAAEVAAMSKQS

[2] = target: T1, T. brucei TS (Tsf-TbDHFR-TS); assay: Kinetic analysis of TS activity (substrates); assay type: biochemical; conditions: clarified E. coli lysate, radiometric assay; read-out: CH2THF Km^app
Protocol: The initial characterisation of TS was also carried out using a spectrophotometric assay. Owing to the pronounced instability of the recombinant protein, clarified ThyA^- E. coli lysates were used for characterisation, where the concentration of TS was calculated based on DHFR activity. […] . Enzymatic reactions were initiated by the addition of CH2THF (200 μM, Shircks Laboratories) and initial rates of CH2THF oxidation to DHF monitored by the increase in absorbance at 340 nm (ε = 6,200 M^-1 cm^-1). This method is not suitable for determination of the Km^app for CH2THF and a radiometric method was used instead. This method measures the release of tritiated water from 5-[^3H]-dUMP (American Radiochemicals, 14.3 Ci mmol^-1). Assays (40 μl final volume) contained 200 nM TS and varying amounts of CH2THF (37.5 μM– 4.8 mM) in DHFR-assay buffer. Reactions were initiated by adding 200 μM [^3H]-dUMP (5.55 × 10^5 dpm nmol^-1) and stopped after 10 min by the addition of 20 μl trichloroacetic acid. Residual 5-[^3H]-dUMP was removed by the addition of 200 μl of 10% (w/v) activated charcoal (Sigma). Aliquots (100 μl) of the supernatants were added to 2 ml of scintillation fluid (Pico-Fluor 40™, Packard Bioscience) and radioactivity determined using a Beckmann LS 6500 Scintillation Counter. […] Protein concentrations were determined using the BioRad protein assay based on the method of Bradford. […]
Target sequence in this assay (Q27783 whole entry): as the sequence (Q27783 whole entry) above
Target sequence in this assay (P0A6P1 whole entry partner): as the sequence (P0A6P1 whole entry, further chain) above

[3] = target: T2, T. brucei DHFR (Tsf-TbDHFR-TS) (Trypanosoma brucei brucei, UniProt Q27783); assay: Kinetic analysis of DHFR activity (substrates); assay type: biochemical; design: The open reading frame of DHFR-TS was amplified by PCR from T. brucei gDNA using specific oligonucleotides; made in house; host or cells: thyA- E. coli derived from BL21 Star (DE3); conditions: for Activity as substrate for T. brucei DHFR: <17,000-fold (folate) and <2,300-fold (pterins) compared to DHF as substrate
Human TS = conditions: cited from earlier work
[4] = target: T2, T. brucei DHFR (Tsf-TbDHFR-TS); assay: Inhibition of DHFR activity of recombinant Tsf-TbDHFR-TS (spectrophotometric, 340 nm); conditions: for Modality of inhibition of DHFR: with respect to DHF
Protocol: DHFR activity was determined spectrophotometrically at 340 nm [18]. DHFR (5 nM) was pre-incubated with 100 μM NADPH (Medford) in assay buffer (50 mM HEPES, pH 7.4, containing 100 mM KCl) for 1 min at 25°C (1 ml final assay volume), before the addition of 100 μM DHF (Sigma Aldrich). […] The Km^app values for DHFR substrates were determined by varying the concentration of one substrate in the presence of a fixed saturating concentration of the other. IC50 values were determined using 8-point doubling dilutions of inhibitor under the above standard assay conditions.
Results were analysed by non-linear regression using GraFit v 5.0.13 (Erithacus Software). Km^app values were determined using the Michaelis-Menten equation. IC50 values were determined using eq 1 and Ki values calculated using the Cheng-Prusoff eq 2 [23].

[5] = system: T. brucei bloodstream-form 'single marker' S427; assay: Growth inhibition of wild type T. brucei, 72 h, resazurin-based assay; assay type: cell-based; conditions: Trypanosoma brucei
Protocol: Wild type (WT) T. brucei bloodstream-form ‘single marker’ S427 were cultured in HMI9T medium supplemented with 2.5 μg ml^-1 G418 to maintain expression of T7 RNA polymerase and the tetracycline repressor protein [27]. HMI9T medium (standard media for T. brucei cell culture) contains high concentrations of folate (~9 μM) and thymidine (~160 μM) principally from IMDM and 10% Serum Plus components. A medium based on HMI9T, only lacking Serum Plus, folate and thymidine was prepared in-house, named trypanosome base media (TBM; the residual folate is provided by the serum component). A comparison of these media is described in S2 Table. WT T. brucei cells grow normally in TBM and the rate of growth is similar to HMI9T in TBM with no supplementation, supplementation with 9 μM folate, 160 μM thymidine or supplementation with both folate and thymidine (7–8 h doubling time).
EC50 of antifolates against T. brucei were determined in 96-well microtitre plates. Serial doubling dilutions of antifolate drugs (10–50 mM stocks prepared in DMSO) were prepared in 100 μl of the appropriate medium and trypanosomes (resuspended in the same medium) added in 100 μl to give a final concentration of 2.5 × 10^3 cells ml^-1. All wells, including controls, contained a final volume of 0.5% DMSO. Cultures were incubated for 72 h at 37°C / 5% CO2 before cell density was determined using a resazurin-based assay. EC50 values were calculated using GraFit v 5.0.13 (Erithacus Software) with a 3-parameter non-linear regression from triplicate readings. Antifolates were tested against parasites cultured in TBM; this allowed for the addition of thymidine (160 μM) and folate (9 μM) respectively.

Human DHFR = conditions: cited from earlier work
[6] = target: T1, T. brucei TS (Tsf-TbDHFR-TS); assay: Stabilisation of recombinant T. brucei TS activity in desalted, diluted lysate; assay type: biochemical
Protocol: as §1
Target sequence in this assay (Q27783 whole entry): as the sequence (Q27783 whole entry) above
Target sequence in this assay (P0A6P1 whole entry partner): as the sequence (P0A6P1 whole entry, further chain) above

[7] = TBM (folate and thymidine deficient), read-out: EC50, No addition
[8] = TBM + folate (9 μM), read-out: EC50, + Folate
[9] = TBM + thymidine (160 μM) + folate (9 μM), read-out: EC50, + Thymidine + Folate
[10] = TBM + thymidine (160 μM), read-out: EC50, + Thymidine
[11] = DHFR Ki, T. brucei, recombinant TbDHFR-TS, from IC50 (Cheng-Prusoff) or Morrison equation for tight binders, Inactive ** = no inhibition at 100 μM
[12] = DHFR Ki (competitive inhibition, global fit, Fig 5), varying DHF, fixed amounts of inhibitor, non-linear regression

T2 sequence (Q27783 whole entry): as the sequence (Q27783 whole entry) above

For `OCCS` [2-mercaptoethanol], the EC50 ([1]; reducing agent at higher concentrations, clarified lysate) was about 100000 µM.
Work on `Nc1nc2c(c(=O)[nH]1)N1CN(c3ccc(C(=O)N[C@@H](CCC(=O)O)C(=O)O)cc3)CC1CN2` (stereo partly drawn) [CH2THF, N^5, N^10-methylenetetrahydrofolate] yielded a Km [2] of 470 ± 50 µM.
In the case of `Nc1nc(=O)c2c([nH]1)NCC(CNc1ccc(C(=O)N[C@@H](CCC(=O)O)C(=O)O)cc1)=N2` [DHF, dihydrofolate], the Km ([3]; Tsf-TbDHFR-TS, purified, 50 mM HEPES pH 7.4, 100 mM KCl, read-out: DHF Km^app) is reported as 4.1 ± 0.6 µM, the Km ([3]; Tsf-cleaved TbDHFR-TS, read-out: DHF Km^app) is reported as 4.2 ± 0.5 µM and the Km ([3]; purified enzyme, read-out: DHFR Km^app (Fig 4 legend)) is reported as 4.1 ± 0.6 µM.
For `O=c1[nH]c(=O)n([C@H]2C[C@H](O)[C@@H](COP(=O)(O)O)O2)cc1F` [FdUMP, 5-fluorodeoxyuridine monophosphate], the Ki [1] is given as 0.014 µM and 0.0138 µM, the “Modality of inhibition of TS” value ([1]; dUMP-competitive) is given as “tight-binding inhibition” and the Ki (Human TS; ref Dolnick and Cheng [32]) is given as 0.0017 µM. The “DHFR Ki, T. brucei” value ([4]; recombinant TbDHFR-TS, from IC50 (Cheng-Prusoff) or Morrison equation for tight binders, Inactive ** = no inhibition at 100 μM) was “Inactive ^**”.
In the case of `Nc1nc(=O)c2nc(CNc3ccc(C(=O)N[C@@H](CCC(=O)O)C(=O)O)cc3)cnc2[nH]1` [Folic acid], the “Activity as substrate for T. brucei DHFR” value [3] is reported as “inactive”.
`CN(Cc1cnc2nc(N)nc(N)c2n1)c1ccc(C(=O)N[C@@H](CCC(=O)O)C(=O)O)cc1` [Methotrexate, methotrexate] showed an EC50 [5, 7] of 0.012 ± 0.001 µM, an EC50 [5, 8] of 1.31 ± 0.13 µM and an EC50 [5, 9] of 8.16 ± 2.78 µM. The EC50 [5, 10] was 0.12 ± 0.03 µM and the “Modality of inhibition of DHFR” value [4] was “tight-binding inhibitors”.
Molecule `NC(=O)C1=CN([C@@H]2O[C@H](COP(=O)(O)OP(=O)(O)OC[C@H]3O[C@@H](n4cnc5c(N)ncnc54)[C@H](OP(=O)(O)O)[C@@H]3O)[C@@H](O)[C@H]2O)C=CC1` [NADPH] has a Km ([3]; Tsf-TbDHFR-TS, purified, read-out: NADPH Km^app) of 1.7 ± 0.2 µM.
For `Cc1ccc2nc(N)[nH]c(=O)c2c1Sc1ccncc1` [Nolatrexed, nolatrexed], the Ki [1] was 0.039 µM and 0.0394 µM, the EC50 ([5]; read-out: EC50, + Folate) was 21.8 ± 2 µM and the EC50 ([5]; read-out: EC50, + Thymidine) was 32.7 ± 4.7 µM. For the same molecule, the EC50 ([5]; read-out: EC50, + Thymidine + Folate) was 39.6 ± 7.2 µM, the EC50 ([5]; read-out: EC50, No addition) was 33.8 ± 3.7 µM and the “DHFR Ki, Human” value (Human DHFR; ref Webber et al. [10]) was “Inactive^h”. It also gave a Ki [4, 11] of 0.348 ± 0.03 µM.
In the case of `Nc1nc2[nH]cc(CCc3ccc(C(=O)N[C@@H](CCC(=O)O)C(=O)O)cc3)c2c(=O)[nH]1` [Pemetrexed, pemetrexed], the Ki [1] is reported as 20.5 µM, the EC50 [5, 7] is reported as 0.02 ± 0.001 µM and the EC50 [5, 8] is reported as 12.9 ± 1.1 µM. The EC50 [5, 9] was over 250 µM, the EC50 [5, 10] was over 250 µM and the Ki (Human DHFR; ref Shih et al. [11]) was 0.007 µM. The Ki [4, 11] was 0.29 ± 0.02 µM.
In the case of `CCc1nc(N)nc(N)c1-c1ccc(Cl)cc1` [Pyrimethamine, pyrimethamine], the “TS Ki, T. brucei” value [1] is reported as “Inactive ^**”, the EC50 [5, 7] is reported as 2.26 ± 0.32 µM and the EC50 [5, 8] is reported as 6.32 ± 0.71 µM. The EC50 [5, 9] was 6.87 ± 0.33 µM, the EC50 [5, 10] was 2.01 ± 0.34 µM and the “Modality of inhibition of DHFR” value [4] was “competitive inhibitors”.
Work on `Cc1nc2ccc(CN(C)c3ccc(C(=O)N[C@@H](CCC(=O)O)C(=O)O)s3)cc2c(=O)[nH]1` [Raltitrexed, raltitrexed] yielded a Ki [1] of 0.215 ± 0.018 µM, an EC50 [5, 7] of 0.038 ± 0.001 µM and an EC50 [5, 8] of 64.8 ± 4.3 µM. The EC50 [5, 9] was over 250 µM, the EC50 [5, 10] was over 250 µM and the Ki (Human DHFR; ref Jackman et al. [12]) was 0.093 µM. For the same molecule, the Ki (Human TS; ref Jackman et al. [12]) was 0.06 µM, the Ki [4, 12] was 0.0704 ± 0.0072 µM and the Ki [4, 11] was 0.0931 ± 0.0079 µM. The “Modality of inhibition of DHFR” value [4] was “competitive inhibitors”.
For `COc1cc(Cc2cnc(N)nc2N)cc(OC)c1OC` [Trimethoprim, trimethoprim], the EC50 [5, 7] was 48.8 ± 3.7 µM, the EC50 [5, 8] was 170 ± 28 µM and the EC50 [5, 9] was 145 ± 22 µM. The EC50 [5, 10] was 59.8 ± 8.6 µM, the Ki [4, 12] was 0.0114 ± 0.0012 µM and the Ki [4, 11] was 0.0176 ± 0.0015 µM. The “Modality of inhibition of DHFR” value [4] was “competitive inhibitors”.
For `COc1cc(NCc2ccc3nc(N)nc(N)c3c2C)cc(OC)c1OC` [Trimetrexate, trimetrexate], the “TS Ki, T. brucei” value [1] was “Inactive ^*”, the EC50 [5, 7] was 0.32 ± 0.02 µM and the EC50 [5, 8] was 1.23 ± 0.06 µM. For the same molecule, the EC50 [5, 9] was 4.09 ± 0.35 µM, the EC50 [5, 10] was 2.82 ± 0.36 µM and the Ki [4, 11] was 0.0006 µM and 0.000597 µM. For the same molecule, the “Modality of inhibition of DHFR” value [4] was “tight-binding inhibitors”.
With `O=c1ccn([C@H]2C[C@H](O)[C@@H](COP(=O)(O)O)O2)c(=O)[nH]1` [dUMP, deoxyuridine monophosphate] the “Increase in stability of TS activity” value ([6]; 200 μM dUMP vs no dUMP) was 700 fold and the EC50 ([6]; absence of CH2THF, diluted lysate incubated 10 min, read-out: Half maximal concentration required to stabilise TS activity) was 12.6 ± 2.5 µM.
For `C[C@H](O)[C@H](O)C1=Nc2c(nc(N)[nH]c2=O)NC1` [dihydrobiopterin], the “Activity as substrate for T. brucei DHFR” value [3] was “inactive”.
In the case of `Nc1nc2ncc([C@H](O)[C@H](O)CO)nc2c(=O)[nH]1` [neopterin], the “Activity as substrate for T. brucei DHFR” value [3] is reported as “inactive”.
For `C[C@H](O)C(=O)C1=Nc2c(nc(N)[nH]c2=O)NC1` [sepiapterin], the “Activity as substrate for T. brucei DHFR” value [3] was “inactive”.
For biopterin, the “Activity as substrate for T. brucei DHFR” value [3] was “inactive”.

From publication PMC4866688, “Trypanosoma brucei DHFR-TS Revisited: Characterisation of a Bifunctional and Highly Unstable Recombinant Dihydrofolate Reductase-Thymidylate Synthase” (PLoS Neglected Tropical Diseases, 2016)
